In patent publication US11712438B2, “Phenyl derivatives as PGE2 receptor modulators” (IDORSIA PHARMACEUTICALS LTD, priority 2017, dated 2023):

What was measured:
Experiment in all cases: cell-based
PTGER2 (EP2) = PTGER2 (EP2) (Homo sapiens, UniProt P43116)
PTRGER4 (EP4) = PTRGER4 (EP4) (Homo sapiens, UniProt P35408);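 also: assay plate preincubated 15 min at 37 °C, after which PGE2 was added at 20 nM final and incubation continued 120 min at 37 °C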
Source text: The assay is using the PathHunter™ HEK 293 PTGER2 and PTGER4 b-arrestin cell lines from DiscoverX. The system is based on the Enzyme Fragment Complementation Technology. Two complementing fragments of the b-galactosidase enzyme are expressed within stably transfected cells. The larger portion of b-gal, termed EA for Enzyme Acceptor, is fused to the C-terminus of b-arrestin 2. The smaller fragment, termed ProLink™ tag, is fused to PTGER2 (EP2) or PTRGER4 (EP4) at the C-terminus. Upon activation, b-arrestin is recruited which forces the interaction of ProLink and EA, allowing complementation of the two fragments of b-gal and the formation of a functional enzyme which is capable of hydrolysing the substrate and generating a chemiluminescent signal.
The HEK 293 PTGER4 b-arrestin cells (DiscoverX 93-030-4C1) are detached from culture dishes with a cell dissociation buffer (Invitrogen, 13151-014), and collected in growing medium (GM: DMEM+Glutamax-I (Invitrogen 32430)/10% FCS, 1% Penicilin/streptomycin). 5000 cells per well of a 384 well plate (white with white bottom Greiner 781080) are seeded in 20 ul per well of GM. Plate is incubated at 37° C., 5% CO2 for 24 hours.
Stock solutions of test compounds are made at a concentration of 10 mM in DMSO, and serially diluted in DMSO to concentrations required for inhibition dose response curves (tested concentration range 10 μM-2 nM or 1 μM-0.2 nM).
PGE2 (Cayman 14010, stock solution: 100 uM in DMSO) is used as agonist at 20 nM final concentration, corresponding to EC80.
Five microliters of diluted compounds are transferred into the assay plate. Plate is pre-incubated 15 minutes at 37° C. Then five microliters of PGE2 (final conc. 20 nM) are transferred into the assay plate. Plate is incubated 120 minutes at 37° C.
Twelve μl of reagent are transferred to the assay plate and incubate for 1 hour at room temperature in the dark. Luminescence counts are read on a BMG Fluostar Optima reader according to manufacturers instructions.
For each compound concentration calculate of the percentage of activity compared to DMSO control value as average±STDEV. (each concentration is measured in duplicate)
When compounds were measured multiple times, mean values are given.

EP2 = EP2 (Homo sapiens, UniProt P43116);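 also: SF295 glioblastoma cells with endogenous EP2 only, PGE2-stimulated cAMP accumulation read by HTRF competitive immunoassay, 45 min pre-incubation then 30 min at room temperature, IBMX in buffer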
EP2, sequence (P43116 whole entry): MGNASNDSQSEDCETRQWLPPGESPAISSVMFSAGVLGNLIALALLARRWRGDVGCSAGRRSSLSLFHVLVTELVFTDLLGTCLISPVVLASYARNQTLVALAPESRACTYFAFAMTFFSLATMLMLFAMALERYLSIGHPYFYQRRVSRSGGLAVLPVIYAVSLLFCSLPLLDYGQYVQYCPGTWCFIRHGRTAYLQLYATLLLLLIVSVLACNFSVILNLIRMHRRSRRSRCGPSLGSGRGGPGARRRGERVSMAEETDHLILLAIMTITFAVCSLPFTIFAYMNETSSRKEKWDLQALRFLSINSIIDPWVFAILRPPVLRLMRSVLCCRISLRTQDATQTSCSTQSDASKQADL

EP4 = EP4 (Homo sapiens, UniProt P35408);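 also: inhibition of PGE2-evoked (6 nM) cAMP accumulation in BT549 breast cancer cells endogenously expressing EP4, cAMP read by HTRF competitive immunoassay after 30 min at room temperature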
EP4, sequence (P35408 whole entry): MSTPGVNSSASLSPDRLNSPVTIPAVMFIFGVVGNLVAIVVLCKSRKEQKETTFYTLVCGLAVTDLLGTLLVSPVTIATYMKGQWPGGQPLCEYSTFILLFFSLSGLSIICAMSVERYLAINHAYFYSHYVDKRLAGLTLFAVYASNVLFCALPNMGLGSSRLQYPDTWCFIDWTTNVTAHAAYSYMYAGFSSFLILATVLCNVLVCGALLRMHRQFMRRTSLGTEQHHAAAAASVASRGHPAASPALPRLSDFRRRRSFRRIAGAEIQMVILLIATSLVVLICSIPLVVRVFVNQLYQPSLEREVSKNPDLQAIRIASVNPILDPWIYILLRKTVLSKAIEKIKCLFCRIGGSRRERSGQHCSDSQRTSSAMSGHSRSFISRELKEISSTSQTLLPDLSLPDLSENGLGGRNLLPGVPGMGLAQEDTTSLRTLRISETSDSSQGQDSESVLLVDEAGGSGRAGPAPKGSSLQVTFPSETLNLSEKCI

PTGER2 (EP2), sequence (P43116 whole entry): as the sequence (P43116 whole entry) above
PTRGER4 (EP4), sequence (P35408 whole entry): as the sequence (P35408 whole entry) above

Row | SMILES | IC50 (PTGER2 (EP2)) | IC50 (PTRGER4 (EP4)) | IC50 (EP2) | IC50 (EP4)
1 | CCOc1cc(-c2cc(NCCc3cccc(OC)c3)ncn2)sc1C(=O)O [Example 59, 3-Ethoxy-5-{6-[2-(3-methoxy-phenyl)-ethylamino]-pyrimidin-4-yl}-thiophene-2-carboxylic acid] | 359 nM | 169 nM | 131 nM | 51 nM
2 | Cc1ccc(CCNc2cc(-c3cc(C(F)(F)F)c(C(=O)O)s3)ncn2)cc1 [Example 62, 5-[6-(2-p-Tolyl-ethylamino)-pyrimidin-4-yl]-3-trifluoromethyl-thiophene-2-carboxylic acid] | 324 nM | 108 nM | 176 nM | 79 nM
3 | Cc1ccc(CCNc2cc(-c3cc(C(F)(F)F)c(C(=O)O)s3)ncn2)c(C)c1 [Example 64, 5-{6-[2-(2,4-Dimethyl-phenyl)-ethylamino]-pyrimidin-4-yl}-3-trifluoromethyl-thiophene-2-carboxylic acid] | 316 nM | 205 nM | 244 nM | 38 nM
4 | CCOc1cc(-c2cc(NCCc3ccc(Cl)cc3[N+](=O)[O-])ncn2)sc1C(=O)O [Example 65, 5-{6-[2-(4-Chloro-2-nitro-phenyl)-ethylamino]-pyrimidin-4-yl}-3-ethoxy-thiophene-2-carboxylic acid] | 111 nM | 136 nM | 102 nM | 53 nM
5 | CCOc1cc(-c2cc(NCCc3ccc(Cl)cc3Cl)ncn2)sc1C(=O)O [Example 66, 5-{6-[2-(2,4-Dichloro-phenyl)-ethylamino]-pyrimidin-4-yl}-3-ethoxy-thiophene-2-carboxylic acid] | 16 nM | 133 nM | 27 nM | 53 nM
6 | CCOc1cc(-c2cc(NCCc3ccc(C)c(C)c3)ncn2)sc1C(=O)O [Example 68, 5-{6-[2-(3,4-Dimethyl-phenyl)-ethylamino]-pyrimidin-4-yl}-3-ethoxy-thiophene-2-carboxylic acid] | 145 nM | 33 nM | 165 nM | 25 nM
7 | CCOc1cc(-c2cc(NCCc3cc(Br)ccc3OC)ncn2)sc1C(=O)O [Example 71, 5-{6-[2-(5-Bromo-2-methoxy-phenyl)-ethylamino]-pyrimidin-4-yl}-3-ethoxy-thiophene-2-carboxylic acid] | 85 nM | 100 nM | 70 nM | 53 nM
8 | CCOc1cc(-c2cc(NCCc3cc(OC)ccc3OC)ncn2)sc1C(=O)O [Example 72, 5-{6-[2-(2,5-Dimethoxy-phenyl)-ethylamino]-pyrimidin-4-yl}-3-ethoxy-thiophene-2-carboxylic acid] | 77 nM | 104 nM | 40 nM | 42 nM
9 | CCOc1cc(-c2cc(NCCc3ccc(OC)cc3OC)ncn2)sc1C(=O)O [Example 73, 5-{6-[2-(2,4-Dimethoxy-phenyl)-ethylamino]-pyrimidin-4-yl}-3-ethoxy-thiophene-2-carboxylic acid] | 54 nM | 136 nM | 30 nM | 35 nM
10 | CCOc1cc(-c2cc(NCCc3ccccc3)ncn2)sc1C(=O)O [Example 75, 3-Ethoxy-5-(6-phenethylamino-pyrimidin-4-yl)-thiophene-2-carboxylic acid] | 727 nM | 2180 nM | 568 nM | 918 nM
11 | CCOc1cc(-c2cc(NCCc3cccc(C(=O)OC)c3)ncn2)sc1C(=O)O [Example 76, 3-Ethoxy-5-{6-[2-(3-methoxycarbonyl-phenyl)-ethylamino]-pyrimidin-4-yl}-thiophene-2-carboxylic acid] | 488 nM | 310 nM | 234 nM | 88 nM
12 | CCOc1cc(-c2cc(NCCc3ccc(Cl)cc3)ncn2)sc1C(=O)O [Example 82, 5-{6-[2-(4-Chloro-phenyl)-ethylamino]-pyrimidin-4-yl}-3-ethoxy-thiophene-2-carboxylic acid] | 74 nM | 103 nM | 66 nM | 46 nM
13 | CCOc1cc(Br)ccc1CCNc1cc(-c2cc(OCC)c(-c3noc(=O)[nH]3)s2)ncn1 [Example 85, 3-(5-{6-[2-(4-Bromo-2-ethoxy-phenyl)-ethylamino]-pyrimidin-4-yl}-3-ethoxy-thiophen-2-yl)-[1,2,4]oxadiazol-5(4H)-one] | 8 nM | 6 nM | 7 nM | 12 nM
14 | CCOc1cc(-c2cc(NCCc3c(F)cc(Cl)cc3OC)ncn2)sc1-c1noc(=O)[nH]1 [Example 86, 3-(5-{6-[2-(4-Chloro-2-fluoro-6-methoxy-phenyl)-ethylamino]-pyrimidin-4-yl}-3-ethoxy-thiophen-2yl)-[1,2,4]oxadiazol-5(4H)-one] | 16 nM | 30 nM | 84 nM | 89 nM
15 | CCOc1cc(-c2cc(NCCc3c(F)cc(Br)cc3OC)ncn2)sc1-c1noc(=O)[nH]1 [Example 87, 3-(5-{6-[2-(4-Bromo-2-fluoro-6-methoxy-phenyl)-ethylamino]-pyrimidin-4-yl}-3-ethoxy-thiophen-2yl)-[1,2,4]oxadiazol-5(4H)-one] | 11 nM | 5 nM | 28 nM | 17 nM
16 | CCOc1cc(-c2cc(NCCc3c(OC)cc(Br)cc3OC)ncn2)sc1-c1noc(=O)[nH]1 [Example 88, 3-(5-{6-[2-(4-Bromo-2,6-dimethoxy-phenyl)-ethylamino]-pyrimidin-4-yl}-3-ethoxy-thiophen-2yl)-[1,2,4]oxadiazol-5(4H)-one] | 9 nM | 2 nM | 31 nM | 6 nM
17 | CCCOc1cc(Br)ccc1CCNc1cc(-c2cc(OCC)c(-c3noc(=O)[nH]3)s2)ncn1 [Example 89, 3-(5-{6-[2-(4-Bromo-2-propoxy-phenyl)-ethylamino]-pyrimidin-4-yl}-3-ethoxy-thiophen-2yl)-[1,2,4]oxadiazol-5(4H)-one] | 17 nM | 3 nM | 10 nM | 58 nM
18 | CCOc1cc(C(F)(F)F)ccc1CCNc1cc(-c2cc(OCC)c(-c3noc(=O)[nH]3)s2)ncn1 [Example 90, 3-(3-Ethoxy-5-{6-[2-(2-ethoxy-4-trifluoromethyl-phenyl)-ethylamino]-pyrimidin-4-yl}-thiophen-2yl)-[1,2,4]oxadiazol-5(4H)-one] | 26 nM | 3 nM | 24 nM | 10 nM
19 | CCOc1cc(-c2cc(NCCc3ccc(OC)cc3F)ncn2)sc1-c1noc(=O)[nH]1 [Example 92, 3-(3-Ethoxy-5-{6-[2-(2-fluoro-4-methoxy-phenyl)-ethylamino]-pyrimidin-4-yl}-thiophen-2yl)-[1,2,4]oxadiazol-5(4H)-one] | 48 nM | 4 nM | 68 nM | 4 nM
20 | CCOc1cc(-c2cc(NCCc3cc(Cl)ccc3Br)ncn2)sc1-c1noc(=O)[nH]1 [Example 94, 3-(5-{6-[2-(2-Bromo-5-chloro-phenyl)-ethylamino]-pyrimidin-4-yl}-3-ethoxy-thiophen-2-yl)-[1,2,4]oxadiazol-5(4H)-one] | 79 nM | 90 nM | 82 nM | 93 nM
